Earlier results on 1 molecule are cited in article PMC12036195 (Journal of Hematology & Oncology, 2025).

This series deals with r/r PTCL.

On to `N#CC[C@H](C1CCCC1)n1cc(-c2ncnc3[nH]ccc23)cn1` [ruxolitinib], for which the Response rate is listed as 25%.
